Data on 5 molecules can be found in US20030017520A1, “High-efficiency assay for protein mannosyl transferases” (priority 2001, published 2003).

Values joined by “and” are separate entries in the source; they are usually repeats but may differ in a detail not shown here. Equal entries are not always repeated. “Also recorded” adds a separate entry of the source.

In data set [1] the test system is protein mannosyl transferases (PMTs), crude enzyme. Put plainly: LUV-based (UPV) PMT activity assay: transfer of [3H]-mannose from Dol-P-Man to acceptor peptide. Particulars: for inhibition of the PMT enzyme by divalent cation chelator: LUV assay conditions (FIG. 7B). The data set is classed as biochemical, S. cervisiae. How it is done: The assays using the UPV method contained 20 mM Tris-HCl, pH 7.5, 10 mM MgCl2, 2.5 mM of the peptide, YNPTSV, 1.5 μl Dol-P-[^3H]-Man (approximately 0.9×10^6 cpm) “solubilized” in 100 μg POPC LUV's and 8 μg of crude enzyme (see Example 2) in a final volume of 40 μl. The assay samples were incubated for 2-30 minutes (varied per individual experiments) at 20° C. and at the end of the incubation the reaction was stopped by the addition of 10 μl 50 mM CuSO4 or 1 ml 0.1% TFA.
Assay reaction products were isolated on C18 cartridges (1 cc/100 mg Bond Elut) obtained from Varian [Homa et al. Prot. Exp. Purif., 6:141-48; 1995]. Isolation of reaction product by solvent extraction was carried out as described by Strahl-Bolsinger and Tanner [Eur. J. Biochem., 196:185-90; 1991].
As part of the characterization of the UPV PMT assay, other parameters such as the influence of detergents and ion dependence were also investigated. PMT assays (using LUVs as produced by the method in Example 3) were conducted by the methods of Example 5. Assays were performed at two concentrations of enzymes (5 and 10 μl). Buffers containing only CHAPS or CHAPS+50% glycerol were substituted for the standard Extraction Buffer used to solubilize the ezyme (see FIG. 6A). The effect of increased detergent concentration was investigated by the addition of increasing amounts of Extraction Buffer (see FIG. 6B).
Experiments were also conducted (as described immediately above) to determine whether PMTs are ion dependent. The control assay (10 mM Mg) contained LUVs made in buffer containing 10 mM MgCl2. All other assays contained LUVs prepared in buffer without MgCl2. […] Enzymol. Relat. Areas Mol. Biol., 52:23-175; 1981].

In data set [2] the test system is protein mannosyl transferases (PMTs). The settings on record: detergent based assay; read-out: Km previously determined; cited from earlier work.
In the next data set the test system is T1, acceptor peptide YNPTSV.
T1 sequence: YNPTSV

On to `O=C(O)CN(CCN(CC(=O)O)CC(=O)O)CC(=O)O` [EDTA], for which the “inhibition of the PMT enzyme by divalent cation chelator” value in data set [1] is listed as “does not inhibit the enzyme; also recorded: appears not to inhibit the enzyme”.
The same measure, in the same setting: as for `O=C(O)CN(CCOCCOCCN(CC(=O)O)CC(=O)O)CC(=O)O` [EGTA], the entry is “equally ineffective”.
`c1cnc2c(c1)ccc1cccnc12` [orthophenanthroline]: the “inhibition of the PMT enzyme by divalent cation chelator” value in data set [1] is recorded as “equally ineffective”.
The Km is the concentration of substrate that gives half-maximal velocity. Turning to “YNPTSV (synthesized acceptor peptide) [standard synthetic acceptor peptide containing an acceptor site for PMTs]”, the Km was 3.3 mM in data set [2]; 1.5 mM and ~1 mM in data set [1] (Dol-P-Man in POPC LUVs, crude enzyme preparation (yeast microsomal lysate), read-out: apparent Km for the acceptor peptide). Also, in data set [1] (Dol-P-Man in POPC LUVs, crude enzyme preparation), the Vmax entry is reported as “approximately 7.25 pmol min.^−1 mg protein^−1”.
Take “protein mannosyl transferases (PMTs), crude detergent extract of S. cervisiae (strain BY4743) microsomal membranes”: in the data set on acceptor peptide YNPTSV, the “Vmax (LUV-based PMT enzyme activity assay, crude enzyme)” value is “Vmax was determined to be approximately 7.25 pmol min.^-1 mg protein^-1”; the “apparent Km (LUV-based PMT enzyme activity assay, crude enzyme)” value was “the apparent Km (using crude enzyme preparation) was determined to be approximately 1 mM”; the “apparent Km (LUV-based PMT enzyme activity assay, crude yeast microsomal lysate)” value is on record as “an apparent Km of 1.5 mM, for the acceptor peptide YNPTSV”.
